These results are taken from patent US7407968B2, “Compounds” (AstraZeneca AB, priority 2003, dated 2008).

Read-outs that look alike come from different tables or passages of the source.

Assay [1] has as its target Human CB1 receptor from Receptor Biology (hCB1) (Homo sapiens, UniProt P21554). The assay is described as follows: hCB1 receptor binding (3H-CP55,940 displacement).
The target in assay [2] is T1, human CB2 receptor from BioSignal (hCB2) (Homo sapiens, UniProt P34972).
T1 construct: purchased BioSignal
The assay is described as follows: hCB2 receptor binding (3H-CP55,940 displacement).

[3] abbreviates: hCB1 membranes, 3H-CP55,940 radioligand, Ki=IC50/(1+[rad]/Kd), read-out: hCB1 Ki.

T1 sequence (P34972 whole entry): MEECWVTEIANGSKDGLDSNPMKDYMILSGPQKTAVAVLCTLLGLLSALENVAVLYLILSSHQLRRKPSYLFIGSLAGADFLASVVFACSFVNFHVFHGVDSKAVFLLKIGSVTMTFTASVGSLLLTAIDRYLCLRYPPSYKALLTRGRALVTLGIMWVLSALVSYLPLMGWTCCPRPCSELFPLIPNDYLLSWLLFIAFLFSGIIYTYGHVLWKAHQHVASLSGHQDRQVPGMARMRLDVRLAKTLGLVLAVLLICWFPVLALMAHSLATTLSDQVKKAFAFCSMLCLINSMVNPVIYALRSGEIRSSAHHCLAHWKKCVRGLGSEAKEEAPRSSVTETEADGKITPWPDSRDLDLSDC
Sequence of Human CB1 receptor from Receptor Biology (hCB1) (P21554 whole entry): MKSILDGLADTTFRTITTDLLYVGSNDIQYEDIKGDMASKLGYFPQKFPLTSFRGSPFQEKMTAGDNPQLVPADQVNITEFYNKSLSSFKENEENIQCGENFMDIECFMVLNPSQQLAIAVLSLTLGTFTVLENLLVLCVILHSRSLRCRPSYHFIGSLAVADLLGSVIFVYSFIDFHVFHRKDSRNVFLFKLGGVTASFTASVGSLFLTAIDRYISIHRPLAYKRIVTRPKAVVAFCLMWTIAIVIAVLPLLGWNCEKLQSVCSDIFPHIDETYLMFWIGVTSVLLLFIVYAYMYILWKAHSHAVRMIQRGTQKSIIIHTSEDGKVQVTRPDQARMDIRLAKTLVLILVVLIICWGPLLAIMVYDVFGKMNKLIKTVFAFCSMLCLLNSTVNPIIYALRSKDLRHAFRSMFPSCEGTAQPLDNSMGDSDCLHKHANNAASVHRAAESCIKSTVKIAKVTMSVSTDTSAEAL

For orientation: Ki means a measure of affinity in units of concentration, obtained from inhibition or displacement. In the case of `CCOc1ccc(Cc2nc3cc(C(=O)N(CC(F)(F)F)CC(F)(F)F)ccc3n2CCC(C)C)cc1` [Compound 1], the Ki turned out to be 2800 nM in assay [1] (setting [3]) and 3.1 nM in assay [2] (hCB2 Ki (nM)).
`CCOc1ccc(Cc2nc3cc(C(=O)N(CC(F)(F)F)CC(F)(F)F)ccc3n2Cc2ccco2)cc1` [Compound 4]: the Ki in assay [1] (setting [3]) is 4690 nM.
Regarding `CCOc1ccc(Cc2nc3cc(C(=O)N(CC(F)(F)F)CC(F)(F)F)ccc3n2CC2CCC2)cc1` [Compound 25], the Ki in assay [1] (hCB1 Ki (nM)) turned out to be 1560 nM; in assay [2] (hCB2 Ki (nM)), 2 nM.
Turning to `CC(C)Oc1ccc(Cc2nc3cc(C(=O)N(CC(F)(F)F)CC(F)(F)F)ccc3n2CC2CCCCC2)nc1` [Compound 32], the Ki in assay [1] (setting [3]) was found to be 142 nM; in assay [2] (hCB2 Ki (nM)), 2.7 nM.
Regarding `CCOc1ccc(Cc2nc3cc(C(=O)N(CC(F)(F)F)CC(F)(F)F)ccc3n2CC2CCCC2)nc1` [Compound 27], the Ki came out at 1360 nM in assay [1] (hCB1 Ki (nM)) and 3.2 nM in assay [2] (hCB2 Ki (nM)).
For `CCOc1ccc(Cc2nc3cc(C(=O)N(CC(F)(F)F)CC(F)(F)F)ccc3n2CC2CCOCC2)nc1` [Compound 20] the same measures were 2730 nM and 11.2 nM.
Turning to `CCOc1ccc(Cc2nc3cc(C(=O)N(CC(F)(F)F)CC(F)(F)F)ccc3n2CC2CCOCC2)cc1` [Compound 13], the Ki in assay [1] (hCB1 Ki (nM)) is 565 nM; in assay [2] (hCB2 Ki (nM)), 5.4 nM.
With `CCOc1ccc(Cc2nc3cc(C(=O)N(CC(F)(F)F)CC(F)(F)F)ccc3n2CC2CCCCC2)cc1` [Compound 3], the Ki in assay [1] (hCB1 Ki (nM)) came out at 84.8 nM; in assay [2] (hCB2 Ki (nM)) it was 0.8 nM.
Take `CCOc1ccc(Cc2nc3cc(C(=O)N(CC(F)(F)F)CC(F)(F)F)ccc3n2CC2CCC2)nc1` [Compound 26]: the figures for the Ki in assay [1] (hCB1 Ki (nM)) and in assay [2] (hCB2 Ki (nM)) were 5530 nM and 6.6 nM, respectively.
For `CCOc1ccc(Cc2nc3cc(C(=O)N(CC(F)(F)F)CC(F)(F)F)ccc3n2CC2CCCCO2)cc1` (centres unmarked) [Compound 16], the Ki is 1410 nM in assay [1] (setting [3]) and 3.3 nM in assay [2] (hCB2 Ki (nM)).
Take `CCOc1ccc(Cc2nc3cc(C(=O)N(CC(F)(F)F)CC(F)(F)F)ccc3n2Cc2ccco2)cc1` [Compound 7]: the Ki in assay [1] (setting [3]) is 5530 nM.
Take `CCOc1ccc(Cc2nc3cc(C(=O)N(CC(F)(F)F)CC(F)(F)F)ccc3n2CC2CC2)cc1` [Compound 2]: the results for the Ki in assay [1] (hCB1 Ki (nM)) and in assay [2] (read-out: hCB2 Ki) were 5080 nM and 5.6 nM, respectively.
Take `CCOc1ccc(C(C)c2nc3cc(C(=O)N(CC(F)(F)F)CC(F)(F)F)ccc3n2Cc2ccncc2)cc1` (centres unmarked) [Compound 9]: the Ki in assay [1] (setting [3]) is 5570 nM; in assay [2] (hCB2 membranes, 3H-CP55,940 radioligand, Ki=IC50/(1+[rad]/Kd), read-out: hCB2 Ki), 165 nM.
As to `CCOc1ccc(Cc2nc3cc(C(=O)N(CC(F)(F)F)CC(F)(F)F)ccc3n2C[C@H]2CCCO2)cc1` [Compound 14], the Ki in assay [1] (hCB1 Ki (nM)) stood at 5750 nM; in assay [2] (hCB2 Ki (nM)), 14.8 nM.
Take `CCOc1ccc(Cc2nc3cc(C(=O)N(CC(F)(F)F)CC(F)(F)F)ccc3n2Cc2ccoc2)nc1` [Compound 29]: the Ki worked out at 5810 nM in assay [1] (setting [3]) and 68.7 nM in assay [2] (hCB2 Ki (nM)).
With `CCOc1ccc(Cc2nc3cc(C(=O)N(CC(F)(F)F)CC(F)(F)F)ccc3n2C[C@@H]2CCCO2)cc1` [Compound 15], the Ki in assay [1] (hCB1 Ki (nM)) was 5750 nM; in assay [2] (hCB2 Ki (nM)), 9.6 nM.
As for `CCOc1ccc(Cc2nc3cc(C(=O)N(CC(F)(F)F)CC(F)(F)F)ccc3n2Cc2ccsc2)nc1` [Compound 36], the Ki is 5750 nM in assay [1] (setting [3]) and 14 nM in assay [2] (hCB2 Ki (nM)).
For `CCOc1ccc(Cc2nc3cc(C(=O)N(CC(F)(F)F)CC(F)(F)F)ccc3n2Cc2ccncc2)cc1` [Compound 8] the same measures were 5350 nM and 16.7 nM.
As to `CCOc1ccc(Cc2nc3cc(C(=O)N(CC(F)(F)F)CC(F)(F)F)ccc3n2CCC(C)C)nc1` [Compound 21], the Ki in assay [1] (hCB1 Ki (nM)) worked out at 5430 nM; in assay [2] (hCB2 Ki (nM)), 15.4 nM.
For `CCOc1ccc(Cc2nc3cc(C(=O)N(CC(F)(F)F)CC(F)(F)F)ccc3n2CC2CCCCC2)nc1` [Compound 30] the same measures were 455 nM and 3.1 nM.
